According to article PMC9599461, “Stereoselectivity in the Membrane Transport of Phenylethylamine Derivatives by Human Monoamine Transporters and Organic Cation Transporters 1, 2, and 3” (Biomolecules, 2022):
Read-outs that look alike come from different tables or passages of the source. Marks after values point to notes of the source that are not given here.

Tests used:
SERT [1] = target: T1, SERT (Homo sapiens, UniProt P31645); test: Stereoselective uptake into SERT-overexpressing HEK293 cells; conditions: for Vmax ± SEM / Km: HEK293 cells overexpressing human SERT, racemic substrate, two minutes; for Vmax ± SEM: net uptake; for Clint ± SEM: SERT, quotient of vmax over Km; for Km: read-out: Km ± SEM, net uptake minus empty vector control;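 for all read-outs here: uptake into HEK293 cells stably expressing human SERT over 2 min, enantiomers measured in cell lysate by chiral HPLC-MS/MS, normalized to total protein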
T1 sequence (P31645 whole entry): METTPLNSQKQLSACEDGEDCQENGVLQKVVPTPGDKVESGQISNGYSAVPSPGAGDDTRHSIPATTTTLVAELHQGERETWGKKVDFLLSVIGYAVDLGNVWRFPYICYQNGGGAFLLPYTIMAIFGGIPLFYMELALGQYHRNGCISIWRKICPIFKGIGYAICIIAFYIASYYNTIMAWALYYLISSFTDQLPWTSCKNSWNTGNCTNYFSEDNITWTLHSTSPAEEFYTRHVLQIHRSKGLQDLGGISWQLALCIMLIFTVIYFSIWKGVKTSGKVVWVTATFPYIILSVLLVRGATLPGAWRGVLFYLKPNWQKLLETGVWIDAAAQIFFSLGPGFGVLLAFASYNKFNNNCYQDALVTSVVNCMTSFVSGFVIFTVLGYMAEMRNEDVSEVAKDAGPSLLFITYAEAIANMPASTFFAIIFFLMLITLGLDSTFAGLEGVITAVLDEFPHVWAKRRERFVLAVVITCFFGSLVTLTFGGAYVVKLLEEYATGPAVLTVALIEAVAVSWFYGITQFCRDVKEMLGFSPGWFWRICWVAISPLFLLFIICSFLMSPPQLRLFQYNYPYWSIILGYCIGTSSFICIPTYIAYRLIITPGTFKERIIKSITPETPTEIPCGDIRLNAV
Description: (§1) All transport experiments were carried out in HEK293 cells stably overexpressing human MATs or OCTs. […] All cells were regularly cultivated in DMEM supplemented with 10% (v/v) FCS, penicillin (100 U/mL) and streptomycin (100 μg/mL)and kept in culture for no longer than 30 passages.
(§2) For the uptake experiments, 300,000 cells were plated in poly-D-lysine precoated 24-well plates 48 h ahead of the transport experiment. On the day of experiment, cells were initially washed once with 37 °C pre-warmed HBSS+ (Hanks buffered salt solution supplemented with 10 mM HEPES) and subsequently incubated with the substrates dissolved in pre-warmed HBSS+ for exactly two minutes. Incubation was stopped by adding ice-cold HBSS+ followed by two washing steps. After this, cells were lysed with 80% acetonitrile containing 10 ng/mL milnacipran as internal standard for high-performance liquid chromatography coupled to tandem mass spectrometry (HPLC-MS/MS) analysis. For every experiment, two additional wells per cell line were lysed using RIPA buffer for protein quantification. Total protein was quantified using the bicinchoninic acid assay [42]. This was later used for normalization of the uptake data.
(§3) Intracellularly accumulated test substances were quantified by HPLC-MS/MS analysis using a Shimadzu Nexera HPLC system with a SIL-30AC autosampler, a CTO-20AC column oven, a LC-30AD pump, and a CBM-20A controller (Shimadzu, Kyoto, Japan). […] CBH HPLC column (100 × 3 mm inner dimension with 5 μM particle size; Sigma-Aldrich, Darmstadt, Germany) with a corresponding 10 × 3 mm guard column. Reversed phased chromatography was carried out using an ammonium acetate (NH4Ac) buffered aqueous mobile phase with isopropyl alcohol (IPA) as organic solvent. […] The order of elution of the enantiomers was obtained from available reference literature [43] or by applying enantiopure reference compounds to the chiral HPLC.
(§4) Detection was performed with an API 4000 tandem mass spectrometer (AB SCIEX, Darmstadt, Germany) operating in multiple-reaction-monitoring mode. Quantification was performed using the Analyst 1.6.2 software (AB SCIEX, Darmstadt, Germany) and quantified by comparison to standard curves with known concentrations.
(§5) All uptake data were normalized to protein content to account for variation in the number of seeded sells. Transporter-mediated net uptake was calculated by subtracting uptake into empty vector-transfected control cells from uptake into transporter-transfected cells. […] Vmax refers to the maximum transport velocity and Km is defined as the substance concentration required to reach half of vmax. The intrinsic clearance Clint was calculated as the quotient of vmax over Km.

SERT [2] = target: T1, SERT
Description: as §1, §2, §3, §4, §5

OCT1 = target: T2, OCT1 (Homo sapiens, UniProt O15245); test: Stereoselective uptake into OCT1-overexpressing HEK293 cells; conditions: for Vmax ± SEM / Km: HEK293 cells overexpressing human OCT1, racemic substrate, two minutes; for Vmax ± SEM: net uptake; for Clint ± SEM: quotient of vmax over Km; for Km: read-out: Km ± SEM, net uptake minus empty vector control;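 for all read-outs here: enantiomers quantified inside cells by chiral HPLC-MS/MS, uptake normalized to total protein from bicinchoninic acid assay, substrates applied in HBSS+ buffer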
T2 sequence (O15245 1-554): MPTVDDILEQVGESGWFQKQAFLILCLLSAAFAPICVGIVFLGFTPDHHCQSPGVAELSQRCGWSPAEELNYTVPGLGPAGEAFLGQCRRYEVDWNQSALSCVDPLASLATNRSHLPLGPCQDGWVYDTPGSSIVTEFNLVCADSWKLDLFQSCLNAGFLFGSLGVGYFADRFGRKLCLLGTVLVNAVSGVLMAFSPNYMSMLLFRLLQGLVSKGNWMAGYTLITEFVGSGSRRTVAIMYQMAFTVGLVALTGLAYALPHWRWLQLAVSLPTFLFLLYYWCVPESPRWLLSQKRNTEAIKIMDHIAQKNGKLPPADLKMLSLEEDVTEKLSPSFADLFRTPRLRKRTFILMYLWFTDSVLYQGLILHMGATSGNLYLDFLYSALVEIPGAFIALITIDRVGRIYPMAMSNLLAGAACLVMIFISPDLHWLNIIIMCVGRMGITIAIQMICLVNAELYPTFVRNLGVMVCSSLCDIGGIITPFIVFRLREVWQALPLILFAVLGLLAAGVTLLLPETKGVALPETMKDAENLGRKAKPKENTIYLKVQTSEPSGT
Description: as §1, §2
(§6) Intracellularly accumulated test substances were quantified by HPLC-MS/MS analysis using a Shimadzu Nexera HPLC system with a SIL-30AC autosampler, a CTO-20AC column oven, a LC-30AD pump, and a CBM-20A controller (Shimadzu, Kyoto, Japan). Stereoselective chromatography was carried out on a [sequence] CBH HPLC column (100 × 3 mm inner dimension with 5 μM particle size; Sigma-Aldrich, Darmstadt, Germany) with a corresponding 10 × 3 mm guard column. Reversed phased chromatography was carried out using an ammonium acetate (NH4Ac) buffered aqueous mobile phase with isopropyl alcohol (IPA) as organic solvent. […] The order of elution of the enantiomers was obtained from available reference literature [43] or by applying enantiopure reference compounds to the chiral HPLC. […] Given the structural similarity of the investigated substances and the fact that separation was performed on the same column with almost identical mobile phases, we assume that this order of elution for our compound set is always the (R)- before the (S)-enantiomer.
as §4
(§7) All uptake data were normalized to protein content to account for variation in the number of seeded sells. Transporter-mediated net uptake was calculated by subtracting uptake into empty vector-transfected control cells from uptake into transporter-transfected cells. Kinetic parameters were then determined after non-linear regression following the Michaelis–Menten equation (v = vmax × [S]/(Km + [S])) using GraphPad Prism (Version 5.01 for Windows, GraphPad Software, La Jolla, CA, USA). Vmax refers to the maximum transport velocity and Km is defined as the substance concentration required to reach half of vmax. The intrinsic clearance Clint was calculated as the quotient of vmax over Km.

OCT3 = target: T3, OCT3 (Homo sapiens, UniProt O75751); test: Stereoselective uptake into OCT3-overexpressing HEK293 cells; conditions: for Vmax ± SEM / Km: HEK293 cells overexpressing human OCT3, racemic substrate, two minutes; for Vmax ± SEM: net uptake; for Clint ± SEM: quotient of vmax over Km; for Stereoselectivity Vmax: given as for (R) or for 1; for Km: read-out: Km ± SEM, net uptake minus empty vector control;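 for all read-outs here: intracellular accumulation in HEK293 cells measured by chiral HPLC-MS/MS after a 2 min substrate exposure at 37 °C, uptake normalized to total protein (bicinchoninic acid assay)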
T3 sequence (O75751 1-556): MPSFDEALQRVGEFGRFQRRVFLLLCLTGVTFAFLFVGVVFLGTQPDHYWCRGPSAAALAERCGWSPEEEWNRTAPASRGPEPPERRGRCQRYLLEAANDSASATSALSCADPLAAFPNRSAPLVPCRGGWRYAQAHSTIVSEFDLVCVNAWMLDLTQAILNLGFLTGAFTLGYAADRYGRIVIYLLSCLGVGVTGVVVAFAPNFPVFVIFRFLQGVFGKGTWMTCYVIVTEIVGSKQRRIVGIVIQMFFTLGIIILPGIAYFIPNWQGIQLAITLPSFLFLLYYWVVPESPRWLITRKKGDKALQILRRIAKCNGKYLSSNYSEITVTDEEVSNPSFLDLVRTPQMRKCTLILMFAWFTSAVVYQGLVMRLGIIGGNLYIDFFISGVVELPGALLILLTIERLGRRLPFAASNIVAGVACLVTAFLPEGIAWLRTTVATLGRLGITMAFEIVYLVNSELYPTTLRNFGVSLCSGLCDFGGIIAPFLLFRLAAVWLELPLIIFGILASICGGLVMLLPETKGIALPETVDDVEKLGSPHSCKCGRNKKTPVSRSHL
Description: as §1, §2, §6, §4, §7

OCT2 [3] = target: T4, OCT2 (Homo sapiens, UniProt O15244); test: Stereoselective uptake into OCT2 (wild-type)-overexpressing HEK293 cells; conditions: for Vmax ± SEM / Km: HEK293 cells overexpressing human OCT2, racemic substrate, two minutes; for Vmax ± SEM: net uptake; for Clint ± SEM: OCT2, quotient of vmax over Km; for Km: read-out: Km ± SEM, net uptake minus empty vector control
T4 sequence (O15244 1-555 S270A): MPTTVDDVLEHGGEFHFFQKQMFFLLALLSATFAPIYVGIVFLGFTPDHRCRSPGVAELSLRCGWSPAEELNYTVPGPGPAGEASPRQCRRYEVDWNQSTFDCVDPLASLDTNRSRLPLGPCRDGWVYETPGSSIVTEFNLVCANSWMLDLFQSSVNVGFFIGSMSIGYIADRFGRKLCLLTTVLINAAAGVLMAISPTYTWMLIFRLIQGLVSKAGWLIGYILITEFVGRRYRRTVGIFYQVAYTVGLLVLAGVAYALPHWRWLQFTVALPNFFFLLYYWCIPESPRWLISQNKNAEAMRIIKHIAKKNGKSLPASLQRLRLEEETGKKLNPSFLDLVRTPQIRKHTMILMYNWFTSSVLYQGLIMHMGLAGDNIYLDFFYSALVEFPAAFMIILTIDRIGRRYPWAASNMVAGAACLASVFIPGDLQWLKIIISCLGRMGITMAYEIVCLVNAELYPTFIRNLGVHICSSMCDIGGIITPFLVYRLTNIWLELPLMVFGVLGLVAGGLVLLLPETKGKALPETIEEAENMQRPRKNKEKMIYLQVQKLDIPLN
Description: as §1, §2
(§8) Intracellularly accumulated test substances were quantified by HPLC-MS/MS analysis using a Shimadzu Nexera HPLC system with a SIL-30AC autosampler, a CTO-20AC column oven, a LC-30AD pump, and a CBM-20A controller (Shimadzu, Kyoto, Japan). Stereoselective chromatography was carried out on a [sequence] CBH HPLC column (100 × 3 mm inner dimension with 5 μM particle size; Sigma-Aldrich, Darmstadt, Germany) with a corresponding 10 × 3 mm guard column. Reversed phased chromatography was carried out using an ammonium acetate (NH4Ac) buffered aqueous mobile phase with isopropyl alcohol (IPA) as organic solvent. […] The order of elution of the enantiomers was obtained from available reference literature [43] or by applying enantiopure reference compounds to the chiral HPLC. […] However, in every other case where the order of elution was available, the (R)-enantiomer eluted first. Given the structural similarity of the investigated substances and the fact that separation was performed on the same column with almost identical mobile phases, we assume that this order of elution for our compound set is always the (R)- before the (S)-enantiomer.
as §4, §7
(§9) HEK293 cells stably overexpressing wild-type or mutant OCT2 were incubated with 100 μM racemic substance for two minutes.

OCT2 [4] = target: T5, OCT2 (Homo sapiens, UniProt O15244, S270A); test: as above; conditions: OCT2, ratio between enantiomers; for Stereoselectivity Km: given as for (R) or for 1 (first-eluting)
T5 sequence (O15244 1-555 S270A): T4 sequence (O15244 1-555 S270A)
Description: as §1, §2, §8, §4, §7, §9

NET = NET (Homo sapiens, UniProt P23975); test: Stereoselective uptake into NET-overexpressing HEK293 cells; conditions: for Vmax ± SEM / Km: HEK293 cells overexpressing human NET, racemic substrate, two minutes; for Vmax ± SEM: net uptake; for Clint ± SEM / Stereoselectivity ClInt / Stereoselectivity Vmax / Stereoselectivity Km: NET; for Clint ± SEM: quotient of vmax over Km; for Stereoselectivity ClInt / Stereoselectivity Vmax / Stereoselectivity Km: ratio between enantiomers; for Stereoselectivity ClInt / Stereoselectivity Vmax: given as for (S) or for 2; for Stereoselectivity Km: given as for (S) or for 2 (second-eluting); for Km: read-out: Km ± SEM, net uptake minus empty vector control;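 for all read-outs here: intracellular enantiomers quantified in cell lysates by chiral HPLC-MS/MS after a 2 min substrate incubation, with uptake normalized to total cellular protein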
NET, sequence (P23975 whole entry): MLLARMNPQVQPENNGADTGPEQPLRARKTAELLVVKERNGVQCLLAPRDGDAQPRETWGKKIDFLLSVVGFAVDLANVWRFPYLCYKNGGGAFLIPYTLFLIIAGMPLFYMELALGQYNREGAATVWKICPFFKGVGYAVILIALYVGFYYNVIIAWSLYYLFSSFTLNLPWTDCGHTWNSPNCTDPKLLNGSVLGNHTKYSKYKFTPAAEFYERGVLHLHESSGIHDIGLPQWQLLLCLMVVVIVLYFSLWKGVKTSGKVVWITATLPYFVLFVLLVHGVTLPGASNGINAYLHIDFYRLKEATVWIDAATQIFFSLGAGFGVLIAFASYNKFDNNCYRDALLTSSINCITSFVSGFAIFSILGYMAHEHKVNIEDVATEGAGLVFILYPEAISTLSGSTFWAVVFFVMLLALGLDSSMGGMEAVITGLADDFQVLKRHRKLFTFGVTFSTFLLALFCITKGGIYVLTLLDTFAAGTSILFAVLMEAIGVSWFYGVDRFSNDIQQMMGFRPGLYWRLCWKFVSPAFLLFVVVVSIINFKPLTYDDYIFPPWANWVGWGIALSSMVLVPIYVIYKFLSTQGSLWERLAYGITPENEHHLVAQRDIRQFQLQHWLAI

OCT2 A270S variant = test: Stereoselective uptake into OCT2 A270S variant-overexpressing HEK293 cells; conditions: 100 μM racemic substance, two minutes; for Transporter selectivity: OCT2 wild-type versus A270S, given as for WT;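 for all read-outs here: uptake into HEK293 cells stably overexpressing human OCT2 variants, intracellular enantiomers quantified by chiral HPLC-MS/MS and normalized to total protein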
DAT = DAT (Homo sapiens, UniProt Q01959); test: Stereoselective uptake into DAT-overexpressing HEK293 cells;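 note: intracellular accumulation measured by chiral HPLC-MS/MS in stably transfected HEK293 cells, normalized to total protein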
DAT, sequence (Q01959 whole entry): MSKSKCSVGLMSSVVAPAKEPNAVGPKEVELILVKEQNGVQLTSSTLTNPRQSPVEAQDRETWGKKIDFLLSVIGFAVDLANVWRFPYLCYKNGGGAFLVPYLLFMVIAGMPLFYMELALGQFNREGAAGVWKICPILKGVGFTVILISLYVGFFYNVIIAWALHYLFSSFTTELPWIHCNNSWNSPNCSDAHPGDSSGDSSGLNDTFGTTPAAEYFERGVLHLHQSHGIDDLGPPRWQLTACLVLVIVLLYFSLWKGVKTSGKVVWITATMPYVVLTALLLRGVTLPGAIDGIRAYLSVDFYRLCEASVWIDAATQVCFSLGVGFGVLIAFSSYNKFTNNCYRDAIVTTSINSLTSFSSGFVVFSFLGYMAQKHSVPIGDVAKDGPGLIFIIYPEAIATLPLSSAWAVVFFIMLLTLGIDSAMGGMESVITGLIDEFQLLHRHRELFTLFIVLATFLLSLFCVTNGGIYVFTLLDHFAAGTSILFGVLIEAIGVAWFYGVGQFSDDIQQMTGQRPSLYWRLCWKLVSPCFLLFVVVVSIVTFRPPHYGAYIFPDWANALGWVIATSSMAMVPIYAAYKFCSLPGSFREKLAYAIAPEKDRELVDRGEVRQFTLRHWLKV

[5] = OCT1, ratio between enantiomers, given as for (R) or for 1 (also 1.00-fold for 1/2)
[6] = OCT3, ratio between enantiomers
[7] = OCT3, ratio between enantiomers, given as for (S) or for 2 (second-eluting)
[8] = OCT1, ratio between enantiomers, given as for (S) or for 2
[9] = DAT, ratio between enantiomers, given as for (S) or for 2

Row | SMILES | Stereoselectivity Km (SERT [1]) | Stereoselectivity Vmax (SERT [1]) | Vmax ± SEM (SERT [1]) | Clint ± SEM (SERT [1]) | Km (SERT [1]) [µM] | Stereoselectivity ClInt (SERT [2]) | Vmax ± SEM (OCT1) | Clint ± SEM (OCT1; OCT1) | Km (OCT1) [µM] | Vmax ± SEM (OCT3) | Clint ± SEM (OCT3; OCT3) | Stereoselectivity Vmax (OCT3; [6]) | Km (OCT3) [µM] | Vmax ± SEM (OCT2 [3]) | Clint ± SEM (OCT2 [3]) | Km (OCT2 [3]) [µM] | Stereoselectivity Km (OCT2 [4]) | Vmax ± SEM (NET) | Clint ± SEM (NET) | Stereoselectivity ClInt (NET) | also measured
1 | C[C@@H]1NCCc2cc(O)c(O)cc21 [Salsolinol-2, Salsolinol] | 1.85 fold | 1.34 fold | 171 pmol × mg Protein^−1 × min^−1 | 0.71 mL × g Protein^−1 × min^−1 | 239 | 2.48 fold | 1426 pmol × mg Protein^−1 × min^−1 | 10.9 mL × g Protein^−1 × min^−1 | 131 | 697 pmol × mg Protein^−1 × min^−1 | 3.15 mL × g Protein^−1 × min^−1 | 1.01 fold | 222 | 9160 pmol × mg Protein^−1 × min^−1 | 42.7 mL × g Protein^−1 × min^−1 | 213 | 1.04 fold | 151 pmol × mg Protein^−1 × min^−1 | 1.48 mL × g Protein^−1 × min^−1 | 1.19 fold | Stereoselectivity ClInt (OCT1; [5]): 1.00 fold; Stereoselectivity ClInt (OCT3): 1.21 fold; Stereoselectivity Km (OCT3; [7]): 1.20 fold; Stereoselectivity ClInt (OCT2 [4]; given as for (S) or for 2): 1.05 fold; Stereoselectivity Vmax (OCT2 [4]; given as for (S) or for 2): 1.01 fold; Stereoselectivity Vmax (NET): 1.35 fold; Stereoselectivity Km (NET): 1.13 fold; Km (NET): 102 µM; Transporter selectivity (OCT2 A270S variant; listed as (S)-Salsolinol): 1.45 fold
2 | NC[C@H](O)c1ccc(O)c(O)c1 [(R)-Norepinephrine] | 1.01-fold for (R) | 1.79-fold for (R) ** | 727 ± 60 pmol × mg Protein^−1 × min^−1 | 4.12 ± 1.31 mL × g Protein^−1 × min^−1 | 176 ± 41.7 | 1.78-fold for (R) | 1524 ± 330 pmol × mg Protein^−1 × min^−1 | 0.45 ± 0.28 mL × g Protein^−1 × min^−1 | 3390 ± 1420 | 3683 ± 360 pmol × mg Protein^−1 × min^−1 | 6.61 ± 3.02 mL × g Protein^−1 × min^−1 | 1.01-fold for (R) | 557 ± 200 | 6603 ± 664 pmol × mg Protein^−1 × min^−1 | 3.81 ± 1.30 mL × g Protein^−1 × min^−1 | 1730 ± 418 | 1.32-fold for (R) | 262 ± 15 pmol × mg Protein^−1 × min^−1 | 113.3 ± 47.6 mL × g Protein^−1 × min^−1 | 1.05-fold for (S) | Stereoselectivity ClInt (OCT1; [8]): 1.06-fold for (S); Stereoselectivity Vmax (OCT1; [8]): 1.16-fold for (S); Stereoselectivity Km (OCT1; OCT1, ratio between enantiomers, given as for (S) or for 2 (second-eluting)): 1.09-fold for (S); Stereoselectivity Km (OCT3; OCT3, ratio between enantiomers, given as for (R) or for 1 (first-eluting)): 1.07-fold for (R); Stereoselectivity ClInt (OCT3; OCT3, ratio between enantiomers, given as for (S) or for 2): 1.07-fold for (S); Stereoselectivity ClInt (OCT2 [4]; given as for (R) or for 1): 1.64-fold for (R); Stereoselectivity Vmax (OCT2 [4]; given as for (R) or for 1): 2.17-fold for (R) **; Stereoselectivity Vmax (NET): 1.38-fold for (S) **; Stereoselectivity Km (NET): 1.32-fold for (S); Km (NET): 2.31 ± 0.84 µM; Clint ± SEM (DAT; DAT, quotient of vmax over Km): 138.8 ± 19.7 mL × g Protein^−1 × min^−1; Stereoselectivity ClInt (DAT; [9]): 1.12-fold for (S); Stereoselectivity Vmax (DAT; [9]): 1.47-fold for (S) ***; Stereoselectivity Km (DAT; DAT, ratio between enantiomers, given as for (S) or for 2 (second-eluting)): 1.31-fold for (S); Vmax ± SEM (DAT; HEK293 cells overexpressing human DAT, racemic substrate, two minutes, net uptake): 3085 ± 81 pmol × mg Protein^−1 × min^−1; Km (DAT; read-out: Km ± SEM, HEK293 cells overexpressing human DAT, racemic substrate, two minutes, net uptake minus empty vector control): 22.2 ± 2.6 µM; Transporter selectivity (OCT2 A270S variant): 1.21 fold
3 | C[C@@H]1NCCc2cc(O)c(O)cc21 [Salsolinol-1, Salsolinol] | 1.85 fold | 1.34 fold | 229 pmol × mg Protein^−1 × min^−1 | 1.77 mL × g Protein^−1 × min^−1 | 129 | 2.48 fold | 1450 pmol × mg Protein^−1 × min^−1 | 10.9 mL × g Protein^−1 × min^−1 | 133 | 705 pmol × mg Protein^−1 × min^−1 | 3.80 mL × g Protein^−1 × min^−1 | 1.01 fold | 186 | 9083 pmol × mg Protein^−1 × min^−1 | 40.9 mL × g Protein^−1 × min^−1 | 222 | 1.04 fold | 112 pmol × mg Protein^−1 × min^−1 | 1.24 mL × g Protein^−1 × min^−1 | 1.19 fold | Stereoselectivity ClInt (OCT1; [5]): 1.00 fold; Stereoselectivity ClInt (OCT3): 1.21 fold; Stereoselectivity Km (OCT3; [7]): 1.20 fold; Stereoselectivity ClInt (OCT2 [4]; given as for (S) or for 2): 1.05 fold; Stereoselectivity Vmax (OCT2 [4]; given as for (S) or for 2): 1.01 fold; Stereoselectivity Vmax (NET): 1.35 fold; Stereoselectivity Km (NET): 1.13 fold; Km (NET): 90.1 µM; Saturable net uptake (DAT; DAT, result in words): No saturable net uptake; Net uptake by A270S variant in comparison to the wild-type (OCT2 A270S variant): 66%; Transporter selectivity (OCT2 A270S variant; listed as (R)-Salsolinol): 1.50 fold
